Measured values: patent US4129643A, “Method for rapid screening of teratogenic agents” (priority 1976, dated 1978)

Key:
Format in all cases: cell-based
test cells = experiment: screening test for teratogenic activity with cells cultured in amniotic fluid; conditions: tests on two teratogens in the mouse
Excerpt: According to my invention I provide a process for screening a compound for teratogenic activity comprising administering the compound being screened to a test animal, removing amniotic fluid from the test animal, using the amniotic fluid removed as part or all of a cell culture medium, and measuring the effect on cell properties of cells grown in the culture medium containing the amniotic fluid from the test animal as compared with the use of amniotic fluid from an otherwise identical control animal that has not had the compound being screened administered to it.
(1) Amniotic fluid is used as cell culture medium or as an additive to a standardised cell culture medium in order to test the substance as processed by the maternal organism. Amniotic fluids either from animals of diverse genotype or of selected genotypes, as required, are pooled. […]
(2) A standardised cell suspension is innoculated into cultures and grown during log phase in the medium containing amniotic fluid from a control or test series as described above. […] Lens epithelium has been used since I have published evidence that quantitative regulation of specific syntheses is of especial importance in this orgen and the assay system described in (3) below detects changes in mitotic rate, cell mass, and growth conditions, cell surface modification and genetically determined pathology. […]

lens epithelial cells [1] = experiment: morphology of lens epithelial cells grown in amniotic fluid from injected mice; conditions: amniotic fluid from mice injected once s.c. at 12-15 days gestation, harvested 1-2 h after; diluted to 50% with culture medium; two days' culture
Procedure: Mice of numerous genotypes were taken from amongst all the more prolific strains available from the Institute of Animal Genetics Mouse House (Mouse News Letter, 1974). They were mated and the pregnancies dated by vaginal plug. They were injected once, subcutaneously, with a teratogen, between 12-15 days of gestation in order to obtain a large volume of clear amniotic fluid. 1-2 hours after the injection the mice were killed by cervical dislocation, the uteri removed and the amniotic fluid harvested under sterile conditions, passed through a Millex filter and stored at -20°C. Control amniotic fluids were obtained from uninjected mice of a similar range of genotypes and stages of gestation. Mice were injected with double the teratogenic doses used for 6-aminonicotinamide by Pinsky and Fraser (Biol. Neonat., 1,106-112 (1959)) and for sodium acetyl salicylate by Larsson and Erickson (Acta. Paed. Scand., 55, 569-576, )1976)), but the amniotic fluids were diluted to 50% with culture medium for use, thus giving a final concentration similar to that used by these authors. Five batches of pooled amniotic fluid of each kind were prepared in this way and tested in separate culture experiments. […]

lens epithelial cells [2] = experiment: protein profile (accumulated protein, stained isoelectric focussing gels) of lens epithelial cells grown in amniotic fluid from injected mice; conditions: diluted to 50% with culture medium; for changes in the protein profile (bands of stained gels): Coomassie Blue stained gels, densitometry
Procedure: Similar densitometry is made of the autoradiograph of the gels. Each analysis can be done on a culture grown from a cell suspension of as little as 1-4.5 × 10^5 cells, but can be scaled up or down as required.
Mice of numerous genotypes were taken from amongst all the more prolific strains available from the Institute of Animal Genetics Mouse House (Mouse News Letter, 1974). They were mated and the pregnancies dated by vaginal plug. They were injected once, subcutaneously, with a teratogen, between 12-15 days of gestation in order to obtain a large volume of clear amniotic fluid. 1-2 hours after the injection the mice were killed by cervical dislocation, the uteri removed and the amniotic fluid harvested under sterile conditions, passed through a Millex filter and stored at -20°C. Control amniotic fluids were obtained from uninjected mice of a similar range of genotypes and stages of gestation. Mice were injected with double the teratogenic doses used for 6-aminonicotinamide by Pinsky and Fraser (Biol. Neonat., 1,106-112 (1959)) and for sodium acetyl salicylate by Larsson and Erickson (Acta. Paed. Scand., 55, 569-576, )1976)), but the amniotic fluids were diluted to 50% with culture medium for use, thus giving a final concentration similar to that used by these authors. Five batches of pooled amniotic fluid of each kind were prepared in this way and tested in separate culture experiments.
Cultures of dissociated lens epithelial cells were prepared according to Okada, Eguchi and Takeichi (Dev. Growth Diffn., 13,323-326 (197l)), and plated at 4.5 × 10^5 cells per dish in 3.5 ml Earles MEM (Biocult) containing 6% foetal calf serum (Gibco). The medium was changed at 2 days, and after 4 days, when these cells were in log phase, the medium was replaced by 1 ml of medium and 1 ml of amniotic fluid. After two further days the cells were labelled for 4 to 5 hours with ^14 C mixed amino acids (Amersham) at 20 μCi/ml. The cultures were washed several times in Hanks solution, harvested with a miniature plastic scraper and taken up into a drop of 8M urea containing 10 mM β-mercaptoethanol. The drop was frozen and thawed three times to liberate the cell contents. When required, the living cells were examined with a Gilbert and Siebert inverted phase microscope.
Polyacrylamide gels containing ampholines according to Wrigley (Science Tools, 15, 17-23, (1968)) were modified to contain 6M urea, 10mM β-mercaptoethanol, and an ampholine mixture giving a gradient from pH 3 to 10, flattened in the region of 4.5 to 7.0. Such gels give especially high resolution for crystallins and are now routinely used in my laboratory. 20 μl of cell preparation was added to each gel which was electrofocussed overnight according to Wrigley (loc. cit.). […]

| SMILES | discrimination of treated cells from control cells (test cells) | cell outline / morphology (lens epithelial cells [1]) | other quantitative changes in the protein profile (lens epithelial cells [2]) | changes in the protein profile (bands of stained gels) (lens epithelial cells [2]) |
| --- | --- | --- | --- | --- |
| NC(=O)c1ccc(N)nc1 [6-aminonicotinamide] | distinguish reliably and specifically between the cells treated by each of these teratogens, and control cells | modified cell outline | some other, less striking quantitative changes were also recorded | one band being missing and one exaggerated |
| CC(=O)Oc1ccccc1C(=O)O [sodium acetyl salicylate] | distinguish reliably and specifically between the cells treated by each of these teratogens, and control cells | normal in morphology | Other quantitative changes were also observed | lacking in the band which was enhanced by 6-aminonicotinamide treatment |
